Results reported in US8536132B2, “Lymphatic zip codes in tumors and pre-malignant lesions” (Sanford-Burnham Medical Research Institute, priority 2006, dated 2013).
Entries after “also recorded” stand apart in the source; their conditions may differ. Ends that are not written are not given here. * marks the point of attachment. FITC = O=C1OC2(c3ccc(O)cc3Oc3cc(O)ccc32)c2ccc(NC(=S)*)cc21

Legend:
[1] = tested on: cell suspension derived from pre-malignant prostate lesions; experiment: Phage binding to cell suspension derived from pre-malignant prostate lesions; assay type: cell-based, mouse; details: phage clones
Protocol: (§1) An NNK-encoded CX7C library display on T7Select415-1 phage (Novagen) was prepared as previously described (Laakkonen et al., 2002). Phage selection and validation have been described (Hoffman, 2004). A two-step procedure was designed for the selection of peptides targeting the tumor lymphatic vessels of pre-malignant prostate lesions and prostate tumor. First, the phage library was incubated with cells derived from normal prostate to subtract the phage that bind to normal prostate. Second, the anti-podoplanin magnetic beads were used to isolate lymphatic endothelial cells. 2-3 rounds of ex vivo selection and 2-3 rounds of in vivo selections were performed. For the ex vivo selections, cell suspensions were prepared from normal prostates of tumor-free littermates of TRAMP mice, pre-malignant prostates of 14- to 16-week-old TRAMP mice, and tumor tissues of 25- to 28-week-old TRAMP mice. Collagenase IA (1 mg/ml, Sigma) was used to disperse the tissues. About 1×10^7 normal prostate cells were incubated at 4° C. for 3 hrs with […] plaque forming units (pfu) of T7 phage displaying a CX7C peptide library. The samples were centrifuged at 1200 rpm for 10 min, the supernatant (the normal prostate-subtracted phage library) was recovered and then incubated overnight at 4° C. with 5×10^7 cells derived from pre-malignant prostate tissue or prostate tumor. The cells were washed to remove unbound phage, incubated with rat anti-mouse podoplanin for 45 min at 4° C., and washed three times with cold PBS containing 0.5% BSA. Podoplanin-positive cells were then isolated using M450 sheep anti-rat IgG Dynabeads (M450; Dynal, Oslo, Norway). Phage that bound to the podoplanin-positive cell population were rescued and amplified in E. coli. In vivo phage library screening was performed as described (Laakkonen et al., 2002).

TRAMP PIN lesions = experiment: In vivo phage homing to TRAMP pre-malignant (PIN) lesions; design: species or system mouse; details: phage clones tested in vivo individually
Protocol: (§2) The following cell lines were maintained in DMEM supplemented with 10% FCS: C8161 human melanoma, MDA-MB-435 human breast cancer, KRIB human osteosarcoma, and human prostate cancer cells PPC1, DU145. LNCaP human prostate cancer cell line was grown in RPMI 1640 medium with 10 mM HEPES, 1 mM sodium pyruvate and 1.5 g/L sodium bicarbonate supplemented with 10% FCS. M12 human prostate cancer cell line was cultured in RPMI 1640 with 5 μg/ml insulin-transferrin-sodium selenite (ITS), 2.5 μg/ml fungizone, 50 μg/ml gentamycin, 0.2 μM dexamethasone, 10 ng/ml epidermal growth factor (EGF), and 5% FCS (Bae et al., 1998). To produce tumors, nude BALB/c and C56BL/6 mice were subcutaneously (C8161, KRIB, and PPC1) or orthotopically ([…], PPC1, DU145, M12, and LNCaP) injected with 1×10^6 tumor cells. Transgenic mouse tumor models included TRAMP prostate cancer, MMTV-PyMT breast cancer, and K14-HPV16 cervical cancer. To initiate cervical carcinogenesis, female K14-HPV16 mice (Arbeit et al., 1994) were treated with 17β-estradiol (E2; (Arbeit et al., 1996; Giraudo et al., 2004). Briefly, one-month-old virgin female transgenic (heterozygous K14-HPV16, 1203#1) and nontransgenic (FVB/n) mice were anesthetized with isoflurane, and continuous release pellets that deliver E2 at doses of 0.05 mg over 60 days (Innovative Research of America, Sarasota, Fla., USA) were implanted subcutaneously in the dorsal back skin. Subsequent pellets were implanted at 3 and 5 months of age for a total of 6 months of hormone treatment. K14-HPV16 mice were maintained in the FVB/n background (FVB/n; The Jackson Laboratory). The mice were maintained in accordance with the University of California, San Francisco (UCSF) institutional guidelines governing the care of laboratory mice. The animal experimentation was approved by Animal Research Committees at UCSF or The Burnham Institute.
(§3) In vivo homing specificity of phage was tested as described (Hoffman, 2004). Briefly, mice bearing tumors were anesthetized and intravenously injected with 5×10^9 pfu of phage. After 7 min, the mice were perfused through the heart with PBS containing 0.5% BSA. The tumor and control organs were dissected from each mouse and the phage were rescued and tittered. For histology analysis, the mice were perfused with 4% PFA 30 min after the injection of phage. Tissues were embedded in Tissue-Tek O.C.T. and 5 μm sections were prepared for phage immunostaining.

CXCR4 = target: T1, CXCR4 (Homo sapiens, UniProt P61073); experiment: Phage binding to CXCR4-transfected 293T cells; details: 293T cells
T1 construct: expressed in transfected cells; host or cells: 293T cells, transient transfection with FuGene 6
T1 sequence (P61073 whole entry, species assumed): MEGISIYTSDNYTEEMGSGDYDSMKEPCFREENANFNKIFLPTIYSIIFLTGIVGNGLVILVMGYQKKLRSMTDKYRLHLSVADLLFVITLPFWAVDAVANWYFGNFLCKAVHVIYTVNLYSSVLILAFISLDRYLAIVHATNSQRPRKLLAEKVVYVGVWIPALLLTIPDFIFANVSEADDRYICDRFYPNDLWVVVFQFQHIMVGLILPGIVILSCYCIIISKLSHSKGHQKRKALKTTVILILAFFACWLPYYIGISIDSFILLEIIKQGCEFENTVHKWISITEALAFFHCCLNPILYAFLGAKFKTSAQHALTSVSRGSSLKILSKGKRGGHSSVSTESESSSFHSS
Protocol: (§4) The 293T cells were transfected with plasmids encoding CXCR4 (Helbig et al., 2003) or VEGFR2 (Borges et al., 2000) using FuGene 6 transfection reagent (Roche Diagnostics, Indianapolis, Ind.). Briefly, plasmid (10 μg) was mixed with 900 μl of serumfree DMEM and 50 μl of FuGene and incubated for 15 min at room temperature before adding the mixture to the cells. The cells were detached using EDTA after 48 hrs post transfection and washed with PBS containing 1% BSA. Phage (5×10^9 pfu) were incubated with the transfected cells and bound phage were rescued and titrated. For competitive binding assay, the cognate peptide (150 μg/ml) or antibody (50 μg/ml) was added during incubating of the phage with cells. Targeted proapoptotic peptide treatment of tumor-bearing mice Prostate cancer model. Orthotopic xenografted prostate tumors were established by injecting 1×10^6 PPC1 human prostate cancer cells into the mouse prostate. Fifteen days post inoculation, the mice were intravenously injected with D(KLAKLAK)2-CREAGRKAC (SEQ ID NO:41), an equimolar mixture of D(KLAKLAK)2 (SEQ ID NO:19) and CREAGRKAC (SEQ ID NO:6), or PBS. Biweekly injections of 100 μg/dose/mouse were given for three weeks. Melanoma model. Nude BALB/c mice were subcutaneously injected with 1×10^6 C8161 human melanoma cells. Treatment started when mean tumor volumes reached about 100 mm3. Mice with size-matched tumors were randomized into three groups. The therapeutic group received a chimera of tumor homing peptide with the proapoptotic motif (D(KLAKLAK)2-CLSDCGKRKC; SEQ ID NO:42). The control groups received an equimolar mixture of CLSDGKRKC (SEQ ID NO:4) and D(KLAKLAK)2 (SEQ ID NO:19), or PBS alone. The tumor-bearing mice were intravenously injected with 200 μg/dose/mouse once a week for three weeks. The mice were monitored for weight loss, and tumors were dissected and weighed at the termination of the experiment. Histological analysis was performed to evaluate the density of tumor lymphatics and blood vessels. The animal experiments reported here were approved by The Burnham Institute Animal Research Committee.

K14-HPV16 skin cancer = experiment: In vivo homing to K14-HPV16 skin cancer; design: species or system mouse; details: i.v. injection, K14-HPV16 mice
Protocol: as §2, §3

[2] = tested on: K14-HPV16/E2 cervical tumors; experiment: In vivo phage homing to K14-HPV16/E2 cervical tumors; design: species or system mouse; details: for phage homing to K14-HPV16/E2 cervical tumors (in words): i.v. injected phage
Protocol: as §2, §3

[3] = tested on: MDA-MB-435 orthotopic xenografts; experiment: In vivo phage homing to MDA-MB-435 orthotopic xenografts; design: species or system mouse; details: for phage homing to MDA-MB-435 tumors (in words): i.v. injected phage
Protocol: as §2, §3

normal tissues = experiment: In vivo phage homing to normal and control tissues; design: species or system mouse; details: i.v. injected phage
Protocol: as §3

TRAMP prostate tumors = experiment: In vivo phage homing to TRAMP prostate tumors; design: species or system mouse; details: i.v. injected phage clone
Protocol: as §2, §3

[4] = tested on: tumor derived cell suspensions (TRAMP); experiment: Phage binding to TRAMP tumor derived cell suspensions; assay type: cell-based, mouse; details: phage clones
Protocol: as §1

C8161 xenografts = experiment: In vivo phage homing to C8161 xenograft tumors; design: species or system mouse; details: i.v. injected phage, C8161 xenograft mice
Protocol: as §2, §3

[5] = tested on: cell suspensions prepared from C8161 tumors; experiment: Phage binding to cell suspensions prepared from C8161 tumors; assay type: cell-based, mouse; details: phage clone, ex vivo
[6] = tested on: K14-HPV16/E2 cervical dysplasia; experiment: In vivo phage homing to K14-HPV16/E2 cervical dysplasia (CIN-3); design: species or system mouse; details: for phage homing to K14-HPV16/E2 pre-malignant cervical lesions (in words): i.v. injected phage
Protocol: as §2, §3

[7] = tested on: PPC1 orthotopic xenografts; experiment: Targeted proapoptotic peptide treatment of mice with PPC1 orthotopic xenografts; assay type: in vivo; details: 100 μg/dose/mouse biweekly i.v., three weeks
Protocol: as §4

[8] = tested on: K14-HPV16/E2 cervical lesions; experiment: Distribution of fluorescent peptides in K14-HPV16/E2 mice with cervical lesions; assay type: in vivo, mouse; details: for fluorescent peptide in normal cervix and control tissues: 100 μg i.v., 2 hrs; for fluorescent peptide in K14-HPV16/E2 cervical lesions/tumors (in words): labeled peptide i.v.
Protocol: The frozen sections were prepared for immunohistological analysis.

[9] = phage homing in vivo, K14-HPV16/E2 cervical dysplasia
[10] = phage homing in vivo, K14-HPV16/E2 cervical cancer / cervical tumors
[11] = phage homing in vivo, MDA-MB-435 orthotopic xenografts
[12] = listed as Fluoresceinlabeled LyP-2 peptide

## CASLSCR
[1]
  binding to cell suspension from pre-malignant prostate lesions (in words): bound
TRAMP PIN lesions
  enrichment to pre-malignant TRAMP lesions relative to nonrecombinant phage: 12 fold

## CGNKRTRGC [LyP-1, previously described lymphatic homing peptide recognizing breast cancer lymphatics and tumor cells, reference compound]
CXCR4
  phage binding to CXCR4-transfected 293T cells (in words): did not bind
K14-HPV16 skin cancer
  homing to K14-HPV16 skin cancers (in words): homed to the K14-HPV16 skin cancer lymphatics
[2]
  phage homing to K14-HPV16/E2 cervical tumors (in words): not to the cervical tumors
[3]
  phage homing to MDA-MB-435 tumors (in words): homes to the MDA-MB-435 tumors
[3]; listed as LyP-1 phage
  phage homing to MDA-MB-435 tumors (in words): homed to MDA-MB-435 tumors
Normal tissues
  phage homing to normal breast tissue: Neither phage homed
  phage homing to normal cervix: Neither phage homed

## CKTRVSCGV
TRAMP prostate tumors
  enrichment in TRAMP tumors relative to nonrecombinant phage: about 30 fold
[4]
  binding to TRAMP tumor derived cell suspensions (in words): robust binding

## CLDGGRPKC
C8161 xenografts
  phage homing to C8161 tumors (in words): homed selectively to the tumors
[5]
  binding to cell suspensions prepared from C8161 tumors (in words): bound to cell suspensions prepared from C8161 tumors

## CNRRTKAGC [LyP-2, homing peptide from K14-HPV16 dysplastic skin lesions; homes to cervical lesion lymphatics]
K14-HPV16 skin cancer
  homing to K14-HPV16 skin cancers (in words): homed to the lymphatics associated with dysplasias and squamous cell carcinomas in the skin; also recorded: homed to the K14-HPV16 skin cancer lymphatics
[6]
  phage homing to K14-HPV16/E2 pre-malignant cervical lesions (in words): homes to the cervical cancers and pre-malignant lesions
[6]; listed as LyP-2 phage
  phage homing to K14-HPV16/E2 pre-malignant cervical lesions (in words): Significantly more; also recorded: robust homing
[6]; [9]
  Fold over control phage: 17 fold
  Specific Homing: Yes
[2]
  phage homing to K14-HPV16/E2 cervical tumors (in words): homes to the cervical cancers and pre-malignant lesions
[2]; listed as LyP-2 phage
  phage homing to K14-HPV16/E2 cervical tumors (in words): Significantly more; also recorded: robust homing
[2]; [10]
  Fold over control phage: 22 fold
  Specific Homing: Yes
[3]; [11]
  Fold over control phage: 3 fold
  Specific Homing: No
Normal tissues
  phage homing to normal breast tissue: Neither phage homed
  phage homing to normal cervix: Neither phage homed
Normal tissues; listed as LyP-2 phage
  phage homing to normal cervix: not to normal cervix

## CSGGKVLDC
[1]
  binding to cell suspension from pre-malignant prostate lesions (in words): bound
TRAMP PIN lesions
  enrichment to pre-malignant TRAMP lesions relative to nonrecombinant phage: 14 fold

## CSMSAKKKC
TRAMP prostate tumors
  enrichment in TRAMP tumors relative to nonrecombinant phage: about 30 fold
[4]
  binding to TRAMP tumor derived cell suspensions (in words): robust binding

## D(KLAKLAK)2-CREAGRKAC (KLAKLAKKLAKLAKCREAGRKAC) [chimera of REA homing peptide with the pro-apoptotic motif D(KLAKLAK)2]
[7]
  number of tumor lymphatics (podoplanin staining): greatly reduced
  tumor blood vessel count/density (MECA-32 staining): unaffected
  tumor volume / tumor growth: unaffected
[7]; listed as REA conjugate
  number of tumor lymphatics (podoplanin staining): reduced the number of tumor lymphatics
  tumor blood vessel count/density (MECA-32 staining): no effect
  tumor volume / tumor growth: no effect

## FITC-LyP-2: fluorescein-labeled LyP-2 peptide (CNRRTKAGC) ({FITC}-CNRRTKAGC; cysteine pairing not given here)
[8]
  fluorescent peptide in normal cervix and control tissues: Little or no fluorescence
[8]; [12]
  fluorescent peptide in normal cervix and control tissues: No peptide accumulation was observed
  fluorescent peptide in K14-HPV16/E2 cervical lesions/tumors (in words): accumulated in the cervical lesions
[8]; fluorescein-labeled peptide
  overlap with podoplanin in cervical lesions: 82%
[8]; fluorescein-labeled peptide, cervical lesions
  co-localization with MECA-32: not with MECA-32
[8]; listed as fluorescein labeled-LyP-2 peptide
  fluorescent peptide in K14-HPV16/E2 cervical lesions/tumors (in words): homes to cervical carcinoma
